Biological target: Plasma kallikrein (Homo sapiens, UniProt P03952)
Test: Measurements were performed in a kinetic interval every 2nd minute for 16 min using a Spectramax M5 (Molecular Devices) with the following settings of the wavelength excitation of 350 nm and wavelength emission of 450 nm.

Chain of Plasma kallikrein (P03952 20-390 limits assumed): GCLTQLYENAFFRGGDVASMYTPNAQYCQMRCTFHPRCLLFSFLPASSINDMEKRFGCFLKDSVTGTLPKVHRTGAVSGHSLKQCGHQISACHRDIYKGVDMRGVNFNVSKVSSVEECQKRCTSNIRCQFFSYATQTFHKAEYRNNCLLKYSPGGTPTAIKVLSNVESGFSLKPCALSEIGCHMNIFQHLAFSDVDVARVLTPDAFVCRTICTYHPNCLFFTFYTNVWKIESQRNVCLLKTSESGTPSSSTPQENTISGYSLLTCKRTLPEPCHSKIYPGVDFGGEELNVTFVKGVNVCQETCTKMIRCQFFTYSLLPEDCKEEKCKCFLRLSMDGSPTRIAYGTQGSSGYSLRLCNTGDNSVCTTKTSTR
Chain of Plasma kallikrein (P03952 391-638 limits assumed): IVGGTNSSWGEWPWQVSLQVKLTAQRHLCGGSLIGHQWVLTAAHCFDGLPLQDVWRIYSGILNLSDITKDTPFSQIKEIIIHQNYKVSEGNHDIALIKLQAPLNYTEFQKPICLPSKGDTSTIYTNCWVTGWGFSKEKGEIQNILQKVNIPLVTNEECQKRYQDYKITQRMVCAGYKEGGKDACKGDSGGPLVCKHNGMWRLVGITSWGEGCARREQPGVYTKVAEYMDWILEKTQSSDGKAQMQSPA

Row | Ki | Compound
1 | 400 pM | Cc1nc(N2CC3(CC3)C2)ccc1Cn1cc(C(=O)N[C@@H]2CCc3c(C)n[nH]c32)cn1
2 | 100 pM | Cc1nc(N2CC3C(C2)C3(F)F)ccc1Cn1cc(C(=O)N[C@@H]2CCc3c(C)n[nH]c32)c(C)n1 (some centres not stated)

Source: ChEMBL document CHEMBL5727776, “Heteroaromatic carboxamide derivatives as plasma kallikrein inhibitors” (2020)
